Experimental data published in patent US20180008573A1, “METHODS AND COMPOSITIONS FOR REDUCING DAMAGE ASSOCIATED WITH OXIDATIVE PHOSPHORYLATION” (USANA Health Sciences, Inc., priority 2016, published 2018).

Experiments:
C. elegans strain CB5586 = experiment: C. elegans phenotypic lifespan screening (Kaplan-Meier, Log-Rank, Fisher's Exact Test); type: in vivo; conditions: for % Change in Mean Lifespan: 0.1 mg/ml vs. DMSO control; for restricted mean lifespan, # of Days: DMSO control 13.23
Protocol: Dilutions of the test formulations were applied to individual populations of C. elegans and the lifespan of each population was monitored. Any changes in the lifespan of an individual population compared to a control population were recorded and correlated to the respective test formulation (N356 or N357) and the respective dilution (0.1 mg/ml, 1 mg/ml, and 10 mg/ml).
The […] and N357 formulations were each prepared as individual 100 mg/ml stock solutions in dimethyl sulfoxide (DMSO). Serial dilutions of each stock solution were then prepared at 0.1 mg/ml, 1 mg/ml, and 10 mg/ml in DMSO. Control solutions of DMSO only were also prepared. Synchronous aged adult populations of C.elegans strain CB5586 worms were prepared. The CB5586 strain comprises a pharyngeal GFP (green fluorescent protein) tag and a mutation in the bus-5 gene. The pharyngeal GFP tag allows for fluorescent images of the worm populations to be taken. The mutation in the bus-5 gene causes the loss of normal cuticle antigens that permits the cuticle of the worms to become permeable to the test formulations and allow direct uptake of the test formulations to avoid interaction of the test formulations with protective mechanisms of the gut channel. Each serial dilution of each test formulation was added to a separate population of the prepared worms. The control solutions were also added to separate populations of the prepared worms. The populations of the prepared worms were then maintained on standard nematode growth media (NGM) agar plates at 20° C. with sufficient food (Escherichia coli strain OP-50).
Each worm population was then monitored by fluorescent imaging to determine the number of living and dead worms as a function of time. The fluorescent imaging was analyzed by software that recognized and counted worms based on their fluorescent intensity compared to background fluorescence. […] The ability to distinguish between living and dead worms allowed the number of living worms and cumulative number of dead worms to be monitored against time. Worm populations from a selection of fluorescent images were manually checked to verify that the software had accurately counted the number of living and dead worms.
The counts of the living and dead worms as a function of time were then analyzed for each of the worm populations and used to prepare Kaplan-Meier survival curves and associated statistics for each of the worm populations. […] The median lifespan is shown as the length of time after the last mitotic division that 50% of the test population remains viable when compared to the control population. The maximum lifespan extension is shown as the length of time after the last mitotic division that 5% of the test population remains viable when compared to the control population.
The counts of the living and dead worms as a function of time and the Kaplan-Meier survival curves and the associated statistics were then analyzed for each of the worm populations. The analysis included determining mean and median lifespan. The analysis included a non-parametric test, the Log-Rank test, that compares two survival functions for the overall lifespan assay and provides a reliable p-value summarizing the whole experiment. The analysis also included Fisher's Exact Test that calculated the significance of survival function comparisons at multiple specific time points throughout the experiment, rather than for the overall lifespan. The results of the analysis are shown below in Tables 10-17.
Phenotypic screening was carried out as described in EXAMPLE 2 for various individual compounds of the N357 formulation. […] Alpha lipoic acid was sourced from PureBulk USA as a racemic mix of R and S stereoisomers and was assigned a sample number of N198. Hesperidin was sourced from Sigma Aldrich at ≧80% purity and was assigned a sample number of N347. […]

NF-κB reporter cells = experiment: Live cell multiplex assay in the NF-κB antagonist assay; type: cell-based, human
Protocol: A vehicle control was prepared.

human NF-κB = experiment: NF-κB antagonist reporter assay (NF-κB GRE-luciferase, HEK293 cells); type: cell-based;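 note: reporter cells carry native NF-κB receptor with firefly luciferase under upstream response elements, with a vehicle control included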

| SMILES | population age in days at 25% mortality (C. elegans strain CB5586; 0.1 mg/ml) [days] | population age in days at 50% mortality (C. elegans strain CB5586; 0.1 mg/ml) [days] | population age in days at 75% mortality (C. elegans strain CB5586; 0.1 mg/ml) [days] | % Change in Mean Lifespan (C. elegans strain CB5586) | restricted mean lifespan, # of Days (C. elegans strain CB5586; 0.1 mg/ml) [days] | population age in days at 25% mortality (C. elegans strain CB5586; 10 mg/ml) [days] | population age in days at 50% mortality (C. elegans strain CB5586; 10 mg/ml) [days] | population age in days at 75% mortality (C. elegans strain CB5586; 10 mg/ml) [days] | restricted mean lifespan, # of Days (C. elegans strain CB5586; 10 mg/ml) [days] | also measured |
| --- | --- | --- | --- | --- | --- | --- | --- | --- | --- | --- |
| COc1ccc([C@@H]2CC(=O)c3c(O)cc(O[C@@H]4O[C@H](CO[C@@H]5O[C@@H](C)[C@H](O)[C@@H](O)[C@H]5O)[C@@H](O)[C@H](O)[C@H]4O)cc3O2)cc1O [N347, hesperidin] | 11 | 16 | 18 | +10% | 14.55 | 11 | 14 | 18 | 14.19 | Statistically Significant Result (lifespan vs. DMSO control) (C. elegans strain CB5586; 0.1 mg/ml): Statistically significant increase; extension of lifespan (C. elegans strain CB5586; 0.1 mg/ml): about 10%; effect on chronological lifespan (C. elegans strain CB5586; 0.1 mg/ml and 10 mg/ml tested): significant positive and dose dependent increase of chronological lifespan; Statistically Significant Result (lifespan vs. DMSO control) (C. elegans strain CB5586; 10 mg/ml): No statistical difference |
| C[C@@H]1O[C@@H](OC[C@H]2O[C@@H](Oc3c(-c4ccc(O)c(O)c4)oc4cc(O)cc(O)c4c3=O)[C@H](O)[C@@H](O)[C@@H]2O)[C@H](O)[C@H](O)[C@H]1O [N346, rutin hydrate] | 9 | 11 | 14 | −8% | 12.03 | 11 | 14 | 16 | 13.43 | decrease of lifespan (C. elegans strain CB5586; 0.1 mg/ml): about 9%; population age in days at 90% mortality (C. elegans strain CB5586; 0.1 mg/ml): 18 days |
| C[C@@H]1O[C@@H](OC[C@H]2O[C@@H](Oc3c(-c4ccc(O)c(O)c4)oc4cc(O)cc(O)c4c3=O)[C@H](O)[C@@H](O)[C@@H]2O)[C@H](O)[C@H](O)[C@H]1O [Rutin, quercetin-3-O-rutinoside] | – | – | – | – | – | – | – | – | – | NF-κB % Live Cell (NF-κB reporter cells; 1.11 μg/ml active ingredient): 99%; NF-κB % Live Cell (NF-κB reporter cells; 3.3 μg/ml active ingredient): 98%; NF-κB % Live Cell (NF-κB reporter cells; 10.0 μg/ml active ingredient): 101%; NF-κB % Live Cell (NF-κB reporter cells; 30 μg/ml active ingredient): 97%; NF-κB % Inhibition (human NF-κB; 1.11 μg/ml active ingredient): 10%; NF-κB % Inhibition (human NF-κB; 3.3 μg/ml active ingredient): −2.3%; NF-κB % Inhibition (human NF-κB; 10.0 μg/ml active ingredient): −11%; NF-κB % Inhibition (human NF-κB; 30 μg/ml active ingredient): −15% |
